{"source": "patent US20210284691A1", "about": "“CBX8 CHROMDOMAIN INHIBITORS AND THE USES THEREOF” (Purdue Research Foundation, priority 2019, published 2021)", "key": {"CBX2 ChD": {"molecular_target": "T1, CBX2 ChD (Homo sapiens, UniProt Q14781)", "T1 construct": "CBX chromodomain constructs; host or cells: E. coli BL21 CodonPlus RIL", "T1 sequence (Q14781 12-70 limits assumed)": "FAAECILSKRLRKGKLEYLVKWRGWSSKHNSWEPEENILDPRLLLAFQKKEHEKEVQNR", "assay": "Direct fluorescence polarization (FP) binding assay"}, "[1]": {"molecular_target": "T2, CBX2 and H3K27me3 at KLK3/TMPRSS2 enhancers and promoters (Homo sapiens, UniProt Q14781)", "T2 construct": "endogenous in cells", "T2 sequence (Q14781 whole entry)": "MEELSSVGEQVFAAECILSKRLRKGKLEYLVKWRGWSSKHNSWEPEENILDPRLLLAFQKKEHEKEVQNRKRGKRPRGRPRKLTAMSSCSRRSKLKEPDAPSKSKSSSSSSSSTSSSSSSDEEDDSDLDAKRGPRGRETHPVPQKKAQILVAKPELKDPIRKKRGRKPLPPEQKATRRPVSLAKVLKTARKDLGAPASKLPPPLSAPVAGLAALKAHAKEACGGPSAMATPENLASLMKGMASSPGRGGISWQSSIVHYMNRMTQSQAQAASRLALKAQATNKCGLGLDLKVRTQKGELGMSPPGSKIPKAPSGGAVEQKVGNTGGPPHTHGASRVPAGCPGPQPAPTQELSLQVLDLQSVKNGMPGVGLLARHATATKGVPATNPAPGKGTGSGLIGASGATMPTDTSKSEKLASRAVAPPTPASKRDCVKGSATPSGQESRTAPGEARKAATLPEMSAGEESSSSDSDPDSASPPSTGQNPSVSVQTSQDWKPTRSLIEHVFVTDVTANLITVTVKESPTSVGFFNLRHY", "assay": "ChIP-qPCR in LNCaP_NED cells", "assay_type": "cell-based", "settings": "10 μM, 4 hours", "description": "FIG. 12A). Neuroendocrine differentiation (NED) of prostate cancer induced by androgen deprivation. Representative pictures of LNCaP cells treated with normal media or charcoal-stripped serum (CSS) media for 6 days to induce neuroendocrine differentiation (LNCaP_NED). FIG. 12B). Transcriptional fold changes of KLK3/TMPRSS2/ENO2/CHGA were quantified normalized to control gene YWHAZ upon CSS media treatment for 6 or 9 days. FIG. 12C). Western blotting of CBX paralogs in LNCaP and LNCaP_NED cells generated from 14-day CSS treatment. FIG. 12D). Cell proliferation of LNCaP_NED following 5 days incubation with 2 or 10 μM SW2_152F. DMSO was used as negative control. FIG. 12E). LNCaP_NED cells were treated with 10 μM SW2_152F for 24 h-96 h. Cell morphology pictures were captured starting from 24 h. Average cell size were plotted at 24 h or 48 h for both DMSO group and compound treated group. FIG. 12F). LNCaP_NED cells were treated with 10 μM or 50 μM SW2_152F for 48 hours. […] Binding of H3K27me3 and CBX2 at specific genomic sites (KLK3/TMPRSS2, e: enhancer, p: promoter) were evaluated using chromatin immunoprecipitation-qPCR. For all experiments in the figure, error bars represent SEM n=3 biological replicates, p-values were calculated using two-tailed Student's t-test, *=p<0.05, **=p<0.01, ***=p<0.001, ****=p<0.0001. […]"}, "[2]": {"tested_on": "H3K27me3, AR, ENO2, N-Myc, CBX2 protein levels", "assay": "Western blotting of protein expression in VCaP_NED cells", "assay_type": "cell-based", "description": "(§1) FIG. 12A). Neuroendocrine differentiation (NED) of prostate cancer induced by androgen deprivation. Representative pictures of LNCaP cells treated with normal media or charcoal-stripped serum (CSS) media for 6 days to induce neuroendocrine differentiation (LNCaP_NED). FIG. 12B). Transcriptional fold changes of KLK3/TMPRSS2/ENO2/CHGA were quantified normalized to control gene YWHAZ upon CSS media treatment for 6 or 9 days. FIG. 12C). Western blotting of CBX paralogs in LNCaP and LNCaP_NED cells generated from 14-day CSS treatment. FIG. 12D). Cell proliferation of LNCaP_NED following 5 days incubation with 2 or 10 μM SW2_152F. DMSO was used as negative control. FIG. 12E). LNCaP_NED cells were treated with 10 μM SW2_152F for 24 h-96 h. Cell morphology pictures were captured starting from 24 h. Average cell size were plotted at 24 h or 48 h for both DMSO group and compound treated group. FIG. 12F). LNCaP_NED cells were treated with 10 μM or 50 μM SW2_152F for 48 hours. Transcriptional fold change of genes (KLK3/TMPRSS2/AR/CBX2) were normalized to YWHAZ in LNCaP_NED cells with SW2_152F treatment or DMSO. FIG. 12G). LNCaP cells were treated with DMSO. LNCaP_NED cells were treated with DMSO, 10 μM GSK343 or 10 μM SW2_152F for 48 hours. Whole cell lysates were extracted for western blotting. FIG. 12H). LNCaP_NED cells were treated with DMSO or 10 μM SW2_152F for 4 hours before harvest. Binding of H3K27me3 and CBX2 at specific genomic sites (KLK3/TMPRSS2, e: enhancer, p: promoter) were evaluated using chromatin immunoprecipitation-qPCR. For all experiments in the figure, error bars represent SEM n=3 biological replicates, p-values were calculated using two-tailed Student's t-test, *=p<0.05, **=p<0.01, ***=p<0.001, ****=p<0.0001.\nIn another androgen-sensitive prostate cancer cell line, VCaP, 6 days of androgen deprivation decreases AR protein expression and increases ENO2, N-Myc, H3K27me3 and CBX2 protein expression (FIG. 12G), similar to published findings (Y. Zhang, et al., 2018). Using this NED cell line (VCaP_NED), we tested how addition of EZH2 inhibitor GSK343 or CBX2 inhibitor SW2_152F affects protein expression changes during NED."}, "[3]": {"molecular_target": "T3, CBX7 bulk chromatin binding (Homo sapiens, UniProt O95931)", "T3 construct": "endogenous in cells; host or cells: Hs68 fibroblasts (A17); HEK293T (A20)", "T3 sequence (O95931 whole entry)": "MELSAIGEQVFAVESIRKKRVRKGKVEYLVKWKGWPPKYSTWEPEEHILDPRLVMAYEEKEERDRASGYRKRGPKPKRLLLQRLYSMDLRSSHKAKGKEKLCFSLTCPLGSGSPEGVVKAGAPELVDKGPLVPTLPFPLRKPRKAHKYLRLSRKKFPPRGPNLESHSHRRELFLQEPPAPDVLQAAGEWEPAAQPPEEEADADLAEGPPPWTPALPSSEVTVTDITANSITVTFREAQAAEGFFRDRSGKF", "assay": "Sequential salt extraction (SSE) in HEK293T cells", "assay_type": "cell-based", "settings": "10 μM"}, "LNCaP_NED cells": {"tested_on": "LNCaP_NED cells", "assay": "LNCaP_NED cell proliferation, viability and morphology", "assay_type": "cell-based", "description": "as §1\nCellular Activity of CBX2 Inhibitor in Neuroendocrine Differentiation of Prostate Cancer—Generation of a Prostate Cancer Neuroendocrine Differentiation (NED) System. To generate an in vitro model for NED, we cultured the androgen-sensitive prostate cancer cell line LNCaP in charcoal-stripped serum (CSS), which lacks androgens as well as other steroids. Upon treatment with CSS media, LNCaP cells adopted morphological characteristics of neuroendocrine-like cells (LNCaP_NED), which include dominant nucleus, limited cytoplasm, dendrites (FIG. 12A) and a decreased proliferation rate. To monitor transcriptional changes during androgen deprivation, we quantified the changes in expression of two NED markers (ENO2 and CHGA) and two AR target genes (KLK3 and TMPRSS2) by RT-qPCR during 15 days of androgen deprivation. […] To verify that LNCaP_NED cells become resistant to AR antagonists, we tested the effects of the AR antagonist enzalutamide (ENZA) on cell proliferation."}}, "note": "Square brackets hold non-standard residues; d marks the D form. Peptide text beside a SMILES is read from it. * marks the point of attachment. Tyr(3-Cl) = N[C@@H](Cc1ccc(O)c(Cl)c1)C(=O)O; Benzoyl(3,5-Cl2) = O=C(c1cc(Cl)cc(Cl)c1)*; Lys(Et2) = CCN(CC)CCCC[C@H](N)C(=O)O; Gly(cPent) = N[C@H](C(=O)O)C1CCCC1; NH(propargyl) = C#CCN*"}
{"smiles": "C#CCNC(=O)[C@H](CO)NC(=O)[C@H](CCCCN(CC)CC)NC(=O)[C@@H](NC(=O)[C@@H](NC(=O)[C@H](Cc1ccc(O)c(Cl)c1)NC(=O)c1cc(Cl)cc(Cl)c1)C1CCCC1)[C@@H](C)CC", "note": "[SW2_152F] ({Benzoyl(3,5-Cl2)}-[Tyr(3-Cl)][Gly(cPent)]I[Lys(Et2)]S-{NH(propargyl)})", "values": [{"measurement": "selectivity for CBX2 over the other paralogs", "setting": "CBX2 ChD; calculated from Kd values", "value": "at least 24 fold"}, {"measurement": "Kd", "setting": "CBX2 ChD; read-out: Kd to CBX2", "value": "~80", "unit": "nM"}, {"measurement": "CBX2 binding at AR target genes, ChIP-qPCR", "setting": "[1]", "value": "abrogates CBX2 binding at the KLK3 (PSA)/TMPRSS2 enhancers and promoters"}, {"measurement": "H3K27me3 enrichment at AR target genes, ChIP-qPCR", "setting": "[1]", "value": "reduces H3K27me3 enrichment specifically at these sites"}, {"measurement": "H3K27me3 levels", "setting": "[2]; 10 μM, 48 hours", "value": "does not"}, {"measurement": "AR, ENO2 and N-Myc expression", "setting": "[2]; compared to DMSO", "value": "increase AR and decrease ENO2 and N-Myc expression"}, {"measurement": "CBX7 binding to chromatin, SSE", "setting": "[3]", "value": "No effect"}, {"measurement": "cell size and dendrites of LNCaP_NED cells", "setting": "LNCaP_NED cells; 10 μM, 24 h or 48 h", "value": "significantly decreased average cell size and reduced dendrites"}, {"measurement": "LNCaP_NED cell proliferation", "setting": "LNCaP_NED cells; 2 or 10 μM, 5 days", "value": "significantly inhibited LNCaP_NED cell proliferation"}, {"measurement": "LNCaP_NED cell viability, combination with ENZA", "setting": "LNCaP_NED cells; both compounds, 4 days, compared to either alone", "value": "significantly decreased"}]}
